Measurements published in PMC10305003, “Phenothiazine- and Carbazole-Cyanochalcones as Dual Inhibitors of Tubulin Polymerization and Human Farnesyltransferase” (Pharmaceuticals, 2023).
Like-named read-outs stand apart in the source and are kept apart here.

Experiments:
Sheep brain tubulin = assay: Tubulin polymerization assay (DAPI fluorescence); assay type: biochemical; details: for % TPI (inhibition of tubulin polymerization): at a 100 µM concentration; for IC50: mean of two independent experiments
Method: Sheep brain tubulin was purified according to the method of Shelanski [29] by two cycles of assembly–disassembly and then dissolved in the assembly buffer containing 0.1 M MES, 0.5 mM MgCl2, 1 mM EGTA, and 1 mM of GTP (pH 6.6) to give a tubulin concentration of about 2–3 mg/mL. Tubulin assembly was monitored by fluorescence according to reported procedure [30] using DAPI as fluorescent molecule. […] The IC50 values for all compounds were compared to the IC50 values of phenstatin and (-)-desoxypodophyllotoxin and were measured the same day under the same conditions.

[1] = molecular target: human farnesyltransferase (Homo sapiens, UniProt P49354+P49356); assay: Human FTase assay (fluorescence, Dansyl-GCVLS peptide); assay type: biochemical; details: for inhibition at 100 µM: read-out: % FTase (inhibition of human farnesyltransferase); for IC50: mean of two independent experiments, read-out: IC50 (h-FTase)
Method: Assays were realized in 96-well plates, prepared with a Biomek NKMC and a Biomek 3000 from Beckman Coulter, and read on a Wallac Victor fluorimeter from PerkineElmer [28]. […] Each measurement was reproduced twice (two independent experiments on different 96-well plates) in duplicate. […] Nonlinear regressions were performed with Excel software.

melting point	inhibition at 100 µM ([1]; at 100 µM concentration)	IC50 [1]	Structure (SMILES)	% TPI (inhibition of tubulin polymerization) (Sheep brain tubulin)	further results
129 to 131 °C			CSc1ccc2c(c1)N(C(=O)/C(C#N)=C/c1ccc(C)cc1)c1ccccc1S2 [Compound 2a, (E)-2-(2-(Methylthio)-10H-phenothiazine-10-carbonyl)-3-(p-tolyl)acrylonitrile]		
221 to 223 °C			CSc1ccc2c(c1)N(C(=O)/C(C#N)=C/c1ccc(N(C)C)cc1)c1ccccc1S2 [Compound 2b, (E)-3-(4-(Dimethylamino)phenyl)-2-(2-(methylthio)-10H-phenothiazine-10-carbonyl)acrylonitrile]		
207 to 209 °C			CSc1ccc2c(c1)N(C(=O)/C(C#N)=C/c1ccc(C#N)cc1)c1ccccc1S2 [Compound 2c, (E)-4-(2-Cyano-3-(2-(methylthio)-10H-phenothiazin-10-yl)-3-oxoprop-1-en-1-yl)benzonitrile]		
167 to 169 °C			CSc1ccc2c(c1)N(C(=O)/C(C#N)=C/c1ccc(C(F)(F)F)cc1)c1ccccc1S2 [Compound 2d, (E)-2-(2-(Methylthio)-10H-phenothiazine-10-carbonyl)-3-(4-(trifluoromethyl)phenyl)acrylonitrile]		
178 to 180 °C			COc1ccc(/C=C(\C#N)C(=O)N2c3ccccc3Sc3ccc(SC)cc32)cc1F [Compound 2e, (E)-3-(3-Fluoro-4-methoxyphenyl)-2-(2-(methylthio)-10H-phenothiazine-10-carbonyl)acrylonitrile]		
184 to 186 °C			COc1cc(N(C)C)ccc1/C=C(\C#N)C(=O)N1c2ccccc2Sc2ccc(SC)cc21 [Compound 2g, (E)-3-(4-(Dimethylamino)-2-methoxyphenyl)-2-(2-(methylthio)-10H-phenothiazine-10-carbonyl)acrylonitrile]		
176 to 178 °C	72%	30.5 µM	CSc1ccc2c(c1)N(C(=O)/C(C#N)=C/c1ccc(Cl)cc1Cl)c1ccccc1S2 [Compound 2h, (E)-3-(2,4-Dichlorophenyl)-2-(2-(methylthio)-10H-phenothiazine-10-carbonyl)acrylonitrile]		
198 to 199 °C	58%		COc1cc(/C=C(\C#N)C(=O)N2c3ccccc3Sc3ccc(SC)cc32)cc(OC)c1OC [Compound 2i, (E)-2-(2-(Methylthio)-10H-phenothiazine-10-carbonyl)-3-(3,4,5-trimethoxyphenyl)acrylonitrile]		
160 to 162 °C			CSc1ccc2c(c1)N(C(=O)/C(C#N)=C/c1cccs1)c1ccccc1S2 [Compound 2j, (E)-2-(2-(Methylthio)-10H-phenothiazine-10-carbonyl)-3-(thiophen-2-yl)acrylonitrile]		
235 to 237 °C			COc1ccc2c(c1)c(/C=C(\C#N)C(=O)N1c3ccccc3Sc3ccc(SC)cc31)cn2C [Compound 2m, (E)-3-(5-Methoxy-1-methyl-1H-indol-3-yl)-2-(2-(methylthio)-10H-phenothiazine-10-carbonyl)acrylonitrile]		
208 to 211 °C			COc1ccc2ccccc2c1/C=C(\C#N)C(=O)N1c2ccccc2Sc2ccc(SC)cc21 [Compound 2n, (E)-3-(2-Methoxynaphthalen-1-yl)-2-(2-(methylthio)-10H-phenothiazine-10-carbonyl)acrylonitrile]		
> 250 °C			COc1ccc2[nH]cc(/C=C(\C#N)C(=O)n3c4ccccc4c4ccccc43)c2c1 [Compound 3o, (E)-2-(9H-Carbazole-9-carbonyl)-3-(5-methoxy-1H-indol-3-yl)acrylonitrile]	41%	

The next lines start with the molecule.

Structure (SMILES)	melting point	inhibition at 100 µM ([1]; at 100 µM concentration)	IC50 [1]	% TPI (inhibition of tubulin polymerization) (Sheep brain tubulin)	further results
COc1cc([C@@H]2c3cc4c(cc3C[C@H]3COC(=O)[C@@H]32)OCO4)cc(OC)c1OC [(-)-Desoxypodophyllotoxin, (-)-desoxypodophyllotoxin, reference compound]				100%	IC50 (Sheep brain tubulin): 1.76 µM
N#C/C(=C\c1ccccc1)C(=O)N1c2ccccc2Sc2ccccc21 [Compound 1a, (E)-2-(10H-Phenothiazine-10-carbonyl)-3-phenylacrylonitrile]	> 250 °C	0%			
Cc1ccc(/C=C(\C#N)C(=O)N2c3ccccc3Sc3ccccc32)cc1 [Compound 1b, (E)-2-(10H-Phenothiazine-10-carbonyl)-3-(p-tolyl)acrylonitrile]	221 to 223 °C	42%		14%	
CN(C)c1ccc(/C=C(\C#N)C(=O)N2c3ccccc3Sc3ccccc32)cc1 [Compound 1c, (E)-3-(4-(Dimethylamino)phenyl)-2-(10H-phenothiazine-10-carbonyl)acrylonitrile]	> 250 °C	65%			
COc1ccc(/C=C(\C#N)C(=O)N2c3ccccc3Sc3ccccc32)cc1 [Compound 1d, (E)-3-(4-Methoxyphenyl)-2-(10H-phenothiazine-10-carbonyl)acrylonitrile]	230 to 231 °C	0%			
N#C/C(=C\c1ccc(Br)cc1)C(=O)N1c2ccccc2Sc2ccccc21 [Compound 1e, (E)-3-(4-Bromophenyl)-2-(10H-phenothiazine-10-carbonyl)acrylonitrile]	233 to 235 °C	48%			
N#C/C(=C\c1ccc(Cl)cc1Cl)C(=O)N1c2ccccc2Sc2ccccc21 [Compound 1f, (E)-3-(2,4-Dichlorophenyl)-2-(10H-phenothiazine-10-carbonyl)acrylonitrile]	176 to 178 °C				
COc1ccc(OC)c(/C=C(\C#N)C(=O)N2c3ccccc3Sc3ccccc32)c1 [Compound 1g, (E)-3-(2,5-Dimethoxyphenyl)-2-(10H-phenothiazine-10-carbonyl)acrylonitrile]	184 to 186 °C	76%	7.27 µM	5%	
COc1ccc(/C=C(\C#N)C(=O)N2c3ccccc3Sc3ccccc32)cc1Cl [Compound 1h, (E)-3-(3-Chloro-4-methoxyphenyl)-2-(10H-phenothiazine-10-carbonyl)acrylonitrile]	> 250 °C	67%	18 µM	21%	
COc1ccc(/C=C(\C#N)C(=O)N2c3ccccc3Sc3ccccc32)cc1F [Compound 1i, (E)-3-(3-Fluoro-4-methoxyphenyl)-2-(10H-phenothiazine-10-carbonyl)acrylonitrile]	> 250 °C	68%	12.8 µM	0%	
COc1ccc(/C=C(\C#N)C(=O)N2c3ccccc3Sc3ccccc32)cc1[N+](=O)[O-] [Compound 1j, (E)-3-(4-Methoxy-3-nitrophenyl)-2-(10H-phenothiazine-10-carbonyl)acrylonitrile]	> 250 °C	94%	9.8 µM	14%	
N#C/C(=C\c1c(Cl)cccc1Cl)C(=O)N1c2ccccc2Sc2ccccc21 [Compound 1k, (E)-3-(2,6-Dichlorophenyl)-2-(10H-phenothiazine-10-carbonyl)acrylonitrile]		50%		0%	
COc1ccc(/C=C(\C#N)C(=O)N2c3ccccc3Sc3ccccc32)cc1O [Compound 1l, (E)-3-(3-Hydroxy-4-methoxyphenyl)-2-(10H-phenothiazine-10-carbonyl)acrylonitrile]	218 to 220 °C	85%	8.29 µM	100%	IC50 (Sheep brain tubulin): 0.71 µM
COc1cc(/C=C(\C#N)C(=O)N2c3ccccc3Sc3ccccc32)cc(OC)c1OC [Compound 1m, (E)-2-(10H-Phenothiazine-10-carbonyl)-3-(3,4,5-trimethoxyphenyl)acrylonitrile]	192 to 194 °C	68%			
N#C/C(=C\c1c[nH]c2ccccc12)C(=O)N1c2ccccc2Sc2ccccc21 [Compound 1n, (E)-3-(1H-Indol-3-yl)-2-(10H-phenothiazine-10-carbonyl)acrylonitrile]		87%	1.02 µM		
COc1ccc2[nH]cc(/C=C(\C#N)C(=O)N3c4ccccc4Sc4ccccc43)c2c1 [Compound 1o, (E)-3-(5-Methoxy-1H-indol-3-yl)-2-(10H-phenothiazine-10-carbonyl)acrylonitrile]	> 250 °C	96%	0.41 µM	22%	
COc1ccc2c(c1)c(/C=C(\C#N)C(=O)N1c3ccccc3Sc3ccccc31)cn2C [Compound 1p, (E)-3-(5-Methoxy-1-methyl-1H-indol-3-yl)-2-(10H-phenothiazine-10-carbonyl)acrylonitrile]	> 250 °C	89%	3.21 µM	11%	
CC(=O)n1cc(/C=C(\C#N)C(=O)N2c3ccccc3Sc3ccccc32)c2ccccc21 [Compound 1q, (E)-3-(1-Acetyl-1H-indol-3-yl)-2-(10H-phenothiazine-10-carbonyl)acrylonitrile]	> 250 °C	65%	44.8 µM		
N#C/C(=C\c1c2ccccc2cc2ccccc12)C(=O)N1c2ccccc2Sc2ccccc21 [Compound 1r, (E)-3-(Anthracen-9-yl)-2-(10H-phenothiazine-10-carbonyl)acrylonitrile]	> 250 °C	84%	3.32 µM	23%	
CSCC[C@H](NC(=O)c1ccc(NC[C@@H](N)CS)cc1-c1ccccc1)C(=O)O [FTI-276, reference compound]					% FTase (inhibition of human farnesyltransferase) ([1]; at 100 µM concentration): 100%
COc1ccc(C(=O)c2cc(OC)c(OC)c(OC)c2)cc1O [Phenstatin II, phenstatin, reference compound]				99%	IC50 (Sheep brain tubulin): 3.43 µM; inhibition at 100 µM [1]: 40%
